Test results: patent publication US9381224B2, “Plant based formulation for the prevention and management of metabolic syndrome and cardiovascular disease mortality risk” (priority 2014, dated 2016)

Test system: Metabolic Syndrome cases
Test: Clinical study in diagnosed Metabolic Syndrome cases
Type: in vivo, human
Protocol: The study population consisted of 128 diagnosed Metabolic Syndrome cases (76 Men and 52 Women), aged 52.81±9.68 years at study entry. The cases were diagnosed as per criteria given by WHO for classification and diagnosis of Metabolic Syndrome.
After preliminary screening the subjects showing association with 3 or more than 3 above factors were selected. The clinical trial was conducted in three groups—
44 cases were treated with Ayurvedic formulation.
Body mass index (BMI) was calculated following formula {weight (kg)÷ height (m2)} and anthropometer was used for circumference measurement. Lipid profile including triglyceride was estimated by standard laboratory kits. TNF-[…], interleukin-6 was measured by ELISA kit, adiponectin by radioimmunoassay kit. CRP by kit for quantitative nephelometric determination of CRP in human serum or plasma by Turbox/Turbox analyzer and ELISA activity assay kit for Leptin level. Subjects suffering from any other disease known to affect the study parameters were excluded from the series. Upon recruitment all subjects gave informed written consent.

## CCCCCCCCCCC[C@@H](C[C@@H]1OC(=O)[C@H]1CCCCCC)OC(=O)[C@H](CC(C)C)NC=O [Conventional drug, Orlistat]
After 3 months
  HbA1c: 5.93%
  PAI-1: 37.42 ng/mL
  tPA-1: 19.45 ng/mL
After 6 months
  Adiponectin: 7.39 µg/mL
  Apolipo (B): 152.87 mg/dL
  Diastolic blood pressure: 86.24 mmHg
  Endothelin: 988.73 pg/mL
  Fasting blood glucose: 108.42 mg/dL
  HDL-c: 43.02 mg/dL
  HbA1c: 5.24%
  Interleukin-6: 2.12 pg/mL
  LDL-c: 114.32 mg/dL
  Leptin: 25.73 µg/L
  PAI-1: 32.98 ng/mL
  Postprandial blood glucose: 179.45 mg/dL
  Systolic blood pressure: 124.87 mmHg
  TNF-α: 488.90 pg/mL
  Total cholesterol: 216.92 mg/dL
  Triglycerides: 287.93 mg/dL
  hs CRP: 3.64 mg/L
  tPA-1: 18.46 ng/mL
Gender F, After 3 months
  CD36: 156.42 ng/mL
Gender F, After 6 months
  CD36: 155.90 ng/mL
Gender F, Initial
  CD36: 142.90 ng/mL
Gender M, After 3 months
  CD36: 173.64 ng/mL
Gender M, After 6 months
  CD36: 196.22 ng/mL
Initial
  Adiponectin: 6.92 µg/mL
  Apolipo (B): 188.73 mg/dL
  Diastolic blood pressure: 89.04 mmHg
  Endothelin: 1286.93 pg/mL
  Fasting blood glucose: 136.42 mg/dL
  HDL-c: 41.62 mg/dL
  HbA1c: 6.82%
  Interleukin-6: 2.25 pg/mL
  LDL-c: 139.72 mg/dL
  Leptin: 36.42 µg/L
  PAI-1: 40.12 ng/mL
  Postprandial blood glucose: 231.68 mg/dL
  Systolic blood pressure: 136.68 mmHg
  TNF-α: 622.45 pg/mL
  Total cholesterol: 247.90 mg/dL
  Triglycerides: 354.86 mg/dL
  hs CRP: 4.93 mg/L
  tPA-1: 21.23 ng/mL
